Measured values as given in patent publication US20240408081A1, “NOVEL SYNERGISTIC COMBINATIONS AND METHODS OF USE THEREOF FOR TREATING CANCERS” (UNIVERSITE DE BORDEAUX, priority 2021, published 2024).
Like-named read-outs stand apart in the source and are kept apart here.

Key:
Huh6 cells = test: Huh6 tumor xenografts in NSG mice; type: in vivo, NOD/LtSz-scid IL2R gamma null (NSG) mice; conditions: intraperitoneal; GSK-126 50 mg/kg, ATR 20 mg/kg 3-times a week; cisplatin 1 mg/kg twice a week
Procedure: NOD/LtSz-scid IL2R gamma null (NSG) mice were bred in standard conditions compliant with regulatory bodies (French government). Sterilized food and water were accessible ad libitum. One million of Huh6 cells in 50% of Matrigel were subcutaneously injected in a total volume of 100 μl in the right flank of 8- to 9-week-old female mice (26-32 g; APAFIS #32917-2021121316283534 v2, Agreement #B33063916, Ministère de l'Enseignement Supérieur, de la Recherche et de l'Innovation).
Tumor growth was monitored by caliper measurement until tumors reached an average volume of 250 mm3 (at day 12, see arrow). […] The vehicle (PBS with 5% DMSO) was injected 3-times a week. Tumor growth was monitored during 16 additional days until tumors control reached a size of 2000 mm3. Thus, all mice were euthanized. Blood was collected from all euthanatized mice and circulating ASAT, ALAT, creatinine, and urea were measured to evaluate the toxicity of the different treatments on the liver and kidneys.

H3K27me3 trimethylation = test: Western blot of H3K27me3 in DMG cells; type: cell-based, human
Procedure: Histone extraction was performed according to manufacturer's instructions (Histone Extraction Kit-ab113476, Abcam, Paris, France).
(§1) Cell lysates were prepared by scraping cells using RIPA buffer (Sigma Aldrich) plus proteinase inhibitors (Sigma Aldrich) and centrifuged at 13000 g for 15 min at 4° C. Protein concentrations were measured using Pierce™ BCATM Protein Assays (ThermoFisher) and equal amounts of cell extracts were loaded for western blot analysis in 4-15% precasted polyacrylamide gel (Bio-Rad). Proteins were blotted on a nitrocellulose membrane (Transblot® Turbo midi-size, Bio Rad), blocked with the Odyssey blocking buffer (LI-COR Biosciences, ScienceTec, Les Ulis, France) or with BSA diluted in Tris-buffered saline with 0.1% Tween 20 (TBST) and probed with primary antibodies overnight at 4° C. […] Quantification was performed using ImageJ (National Institutes of Health, Bethesda, Maryland, USA).

BXdmg1 primary cells = test: Proliferation assay in primary DMG cells BXdmg1; type: cell-based, human
Procedure: Cell growth was measured with the In vitro Toxicology Assay kit (Sulforhodamine B, Sigma Aldrich, Saint Quentin Fallavier, France) according to manufacturer's instructions. Cells were plated at a density of 2000 cells per well in 96-well plates in triplicates. Absorbance was measured at 565 nm using the CLARIOstar multiplate reader (BMG Labtech, Champigny-sur-Marne, France) at indicated time points.
A DMG biopsy was received in the laboratory and dissociated using GentleMACs cell separator (Miltenyi Biotech, Paris, France) within 24h using MACSBrain Tumor Dissociation Kit (Miltenyi Biotech, Paris, France) and the standard GentleMACs brain tissue separation program. Cells yielded were cultivated in Amniomax C100SUP plus Amniomax C100 basal medium (Gibco, ThermoFisher, Illkirch Cedex, France). Molecular and cellular analysis of the biopsy were detailed in FIG. 7 (see Rahal, F., C. Capdevielle, B. Rousseau, J. Izotte, J. W. Dupuy, D. Cappellen, G. Chotard, M. Menard, J. Charpentier, V. Jecko, C. Caumont, E. Gimbert, C. F. Grosset and M. Hagedorn (2022). “An EZH2 blocker sensitizes histone mutated diffuse midline glioma to cholesterol metabolism inhibitors through an off-target effect.” Neurooncol Adv 4 (1): vdac018).

[1] = system: HMGCS, HMGCR, LDLR, NPC1 and SQLE; test: RT-qPCR and Western blot of lipid and cholesterol synthesis genes in DIPG cells; type: cell-based, human; conditions: GSK-126 at IC50 of each cell line
Procedure: as §1
Total RNA was isolated from cell lines with the TRI Reagent (Sigma) following manufacturer's instructions. For quantification of messenger RNA (mRNA) expression, total RNA was retrotranscribed using the Maxima Reverse Transcriptase (Thermo Scientific). […]

HepG2 cells = test: Cell viability assay (CellTiter 96 AQueous One / MTS) in HepG2; type: cell-based, human
Procedure: For 2D culture, a total of 2,000 cells/well for Huh6 and 3,000 cells/well for HepG2 were seeded in 96-well microtiter plates. Cell growth was measured at 24 h, 48h, 72h or 96h after genetic manipulation and at 48h or 72h after drug treatment using the in vitro MTS assay Kit or Sulforhodamine B (SRB, Absorbance at 565 nm) assay (Sigma) following manufacturer's instructions. For 3D culture, spheroids were formed as described above and microplates were incubated in an IncuCyte® S3 live cell analysis system and scanned every 8 hours. For genetic manipulation, the lentiviral transductions or the gene depletions were done before the plating. For drug treatments, depending on the experiment and the drug, spheroids were treated at day 4 or 5 for 48h or 72h. Cell viability assay in spheroids was done using 1 μM calcein AM (BioLegend) and 2 μM ethidium homodimer 1 (Sigma) for 30 minutes at 37° C. Spheroids were imaged using an IncuCyte® S3 live cell analysis system. For all cell viability assays, drugs were used at half maximal inhibitory concentration (IC50).

[2] = system: patients with relapsed/refractory solid tumors and hematologic malignancies; conditions: cited from earlier work

CC[C@H](C)n1cc(C)c2c(C(=O)NCc3c(C)cc(C)[nH]c3=O)cc(-c3ccc(N4CCNCC4)nc3)cc21 [GSK-126, 1-[(2S)-butan-2-yl]-N-[(4,6-dimethyl-2-oxo-1H-pyridin-3-yl)methyl]-3-methyl-6-[6-(1-piperazinyl)-3-pyridinyl]-4-indolecarboxamide]
development of hepatoblastoma in mice (tumor volume) (Huh6 cells): no effect | H3K27me3 trimethylation (H3K27me3 trimethylation; BXdmg1 cells, histone-purified protein extracts): reduced H3K27me3 trimethylation in a dose-dependent manner | H3K27me3 trimethylation (H3K27me3 trimethylation; NEM157i and SU-DIPG-IVi DMG cells): efficiently inhibited | IC50 (BXdmg1 primary cells): 10.4 µM | IC50 (BXdmg1 primary cells; Homo sapiens): ~10 µM | expression of HMGCS, HMGCR, LDLR, NPC1 and SQLE genes, and HMGCR and SQLE proteins [1]: induced | IC25 dose (HepG2 cells): 4 µM | IC50 (HepG2 cells; Homo sapiens): 8 µM | clinical activity ([2]; at the MTD): inadequate clinical activity | half-life ([2]; human, in vivo): relatively short | maximum tolerated dose (MTD) ([2]; twice weekly intravenous, 28 days (3 weeks on/1 week off)): 2,400 mg
